# Experimental data taken from ChEMBL document CHEMBL3600363, “Discovery of potent, selective small molecule inhibitors of α-subtype of type III phosphatidylinositol-4-kinase (PI4KIIIα)” (Bioorg Med Chem Lett, 2015).
# Columns and labels:
# [1] = biological target: Phosphatidylinositol 4-kinase alpha (Homo sapiens, UniProt P42356); experiment: Inhibition of N-terminal FLAG-tagged human full length recombinant PI4K3alpha using D-myo-phosphatidylinositol substrate and ATP incubated for 45 mins by ADP-Glo kinase Assay
# Sequence of Phosphatidylinositol 4-kinase alpha (P42356 whole entry): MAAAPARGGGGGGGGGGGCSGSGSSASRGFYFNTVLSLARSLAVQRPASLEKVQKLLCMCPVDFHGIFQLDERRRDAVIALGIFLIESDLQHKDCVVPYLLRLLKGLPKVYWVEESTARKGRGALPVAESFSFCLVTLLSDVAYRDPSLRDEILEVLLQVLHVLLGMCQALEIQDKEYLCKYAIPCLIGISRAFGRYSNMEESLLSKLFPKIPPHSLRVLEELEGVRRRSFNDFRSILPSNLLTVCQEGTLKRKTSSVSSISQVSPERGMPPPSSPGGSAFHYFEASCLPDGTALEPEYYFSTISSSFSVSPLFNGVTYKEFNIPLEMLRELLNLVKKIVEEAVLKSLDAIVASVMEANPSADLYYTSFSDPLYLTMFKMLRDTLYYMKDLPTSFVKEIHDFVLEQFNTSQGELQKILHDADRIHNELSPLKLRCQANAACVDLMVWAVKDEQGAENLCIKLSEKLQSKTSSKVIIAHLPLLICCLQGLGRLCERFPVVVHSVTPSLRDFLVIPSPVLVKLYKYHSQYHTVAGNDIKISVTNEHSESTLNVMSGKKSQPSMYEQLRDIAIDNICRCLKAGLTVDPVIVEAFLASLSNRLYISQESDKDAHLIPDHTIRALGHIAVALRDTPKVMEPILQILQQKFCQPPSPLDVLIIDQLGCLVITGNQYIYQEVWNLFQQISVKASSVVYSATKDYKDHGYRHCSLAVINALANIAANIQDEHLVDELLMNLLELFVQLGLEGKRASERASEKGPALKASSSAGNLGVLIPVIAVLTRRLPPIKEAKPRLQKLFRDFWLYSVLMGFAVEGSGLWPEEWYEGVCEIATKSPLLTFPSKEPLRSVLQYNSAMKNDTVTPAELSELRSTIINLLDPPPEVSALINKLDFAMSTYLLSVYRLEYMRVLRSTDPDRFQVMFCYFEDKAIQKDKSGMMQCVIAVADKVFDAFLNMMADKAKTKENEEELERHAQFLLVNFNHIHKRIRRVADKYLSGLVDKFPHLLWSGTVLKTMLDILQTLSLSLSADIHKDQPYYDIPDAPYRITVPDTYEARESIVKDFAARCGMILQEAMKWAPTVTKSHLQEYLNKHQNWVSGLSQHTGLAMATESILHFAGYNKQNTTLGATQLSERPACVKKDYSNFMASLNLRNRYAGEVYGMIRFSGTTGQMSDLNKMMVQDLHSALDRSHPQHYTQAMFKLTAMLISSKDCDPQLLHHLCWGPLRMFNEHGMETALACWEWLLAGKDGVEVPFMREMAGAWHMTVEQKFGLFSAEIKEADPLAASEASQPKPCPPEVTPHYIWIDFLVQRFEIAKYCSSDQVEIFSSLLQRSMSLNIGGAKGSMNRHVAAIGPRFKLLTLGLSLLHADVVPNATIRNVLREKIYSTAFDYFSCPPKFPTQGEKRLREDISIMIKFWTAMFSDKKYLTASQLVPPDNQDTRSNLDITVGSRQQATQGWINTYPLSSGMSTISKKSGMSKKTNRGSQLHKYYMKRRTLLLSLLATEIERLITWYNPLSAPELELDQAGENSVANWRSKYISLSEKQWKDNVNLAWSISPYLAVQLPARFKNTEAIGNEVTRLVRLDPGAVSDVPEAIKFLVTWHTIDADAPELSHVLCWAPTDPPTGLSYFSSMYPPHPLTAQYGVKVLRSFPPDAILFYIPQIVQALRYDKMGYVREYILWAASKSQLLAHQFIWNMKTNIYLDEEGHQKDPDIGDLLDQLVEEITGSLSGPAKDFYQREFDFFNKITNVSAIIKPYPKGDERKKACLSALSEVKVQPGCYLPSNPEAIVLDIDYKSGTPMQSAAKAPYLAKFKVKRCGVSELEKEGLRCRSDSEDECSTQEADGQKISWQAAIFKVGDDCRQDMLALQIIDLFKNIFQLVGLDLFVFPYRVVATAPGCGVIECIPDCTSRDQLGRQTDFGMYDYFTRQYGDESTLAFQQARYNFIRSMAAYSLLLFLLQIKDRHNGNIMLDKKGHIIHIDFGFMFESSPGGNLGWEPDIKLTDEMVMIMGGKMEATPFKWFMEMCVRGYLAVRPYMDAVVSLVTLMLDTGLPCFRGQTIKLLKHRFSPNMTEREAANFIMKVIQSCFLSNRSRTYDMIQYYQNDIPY
# [2] = biological target: Phosphatidylinositol 4-kinase beta (Homo sapiens, UniProt Q9UBF8); experiment: Inhibition of N-terminal GST-tagged human full length recombinant PI4K3beta expressed in Sf9 cells using D-myo-phosphatidylinositol substrate and ATP incubated for 45 mins by ADP-Glo kinase Assay
# Sequence of Phosphatidylinositol 4-kinase beta (Q9UBF8 whole entry, canonical isoform): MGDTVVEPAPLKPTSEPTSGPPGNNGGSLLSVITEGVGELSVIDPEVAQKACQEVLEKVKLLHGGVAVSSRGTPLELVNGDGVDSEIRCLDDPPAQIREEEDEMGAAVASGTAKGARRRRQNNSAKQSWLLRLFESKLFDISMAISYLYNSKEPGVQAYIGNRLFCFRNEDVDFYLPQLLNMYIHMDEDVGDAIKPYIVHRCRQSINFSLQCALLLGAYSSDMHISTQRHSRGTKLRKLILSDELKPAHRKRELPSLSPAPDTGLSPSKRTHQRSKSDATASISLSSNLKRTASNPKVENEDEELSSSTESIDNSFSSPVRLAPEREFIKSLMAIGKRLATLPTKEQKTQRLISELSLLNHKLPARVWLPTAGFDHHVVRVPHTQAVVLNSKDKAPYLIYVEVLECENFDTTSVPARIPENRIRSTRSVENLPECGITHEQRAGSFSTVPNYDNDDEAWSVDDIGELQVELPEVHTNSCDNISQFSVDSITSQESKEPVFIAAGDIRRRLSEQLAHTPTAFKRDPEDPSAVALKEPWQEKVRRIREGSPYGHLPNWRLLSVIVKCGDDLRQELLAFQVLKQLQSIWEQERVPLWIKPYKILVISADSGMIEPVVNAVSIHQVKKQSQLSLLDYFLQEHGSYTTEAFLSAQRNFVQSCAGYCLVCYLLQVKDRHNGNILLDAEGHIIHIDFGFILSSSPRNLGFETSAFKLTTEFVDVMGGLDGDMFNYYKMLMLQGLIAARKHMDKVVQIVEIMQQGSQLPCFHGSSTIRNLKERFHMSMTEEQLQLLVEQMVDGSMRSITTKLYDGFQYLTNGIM
# [3] = biological target: Phosphatidylinositol 4,5-bisphosphate 3-kinase catalytic subunit gamma isoform (Homo sapiens, UniProt P48736); experiment: Inhibition of PI3Kgamma (unknown origin) pre-incubated for 20 mins before phosphatidylinositol 4, 5-bisphosphate substrate addition by kinase-glo plus luminescence assay
# Sequence of Phosphatidylinositol 4,5-bisphosphate 3-kinase catalytic subunit gamma isoform (P48736 whole entry, canonical isoform): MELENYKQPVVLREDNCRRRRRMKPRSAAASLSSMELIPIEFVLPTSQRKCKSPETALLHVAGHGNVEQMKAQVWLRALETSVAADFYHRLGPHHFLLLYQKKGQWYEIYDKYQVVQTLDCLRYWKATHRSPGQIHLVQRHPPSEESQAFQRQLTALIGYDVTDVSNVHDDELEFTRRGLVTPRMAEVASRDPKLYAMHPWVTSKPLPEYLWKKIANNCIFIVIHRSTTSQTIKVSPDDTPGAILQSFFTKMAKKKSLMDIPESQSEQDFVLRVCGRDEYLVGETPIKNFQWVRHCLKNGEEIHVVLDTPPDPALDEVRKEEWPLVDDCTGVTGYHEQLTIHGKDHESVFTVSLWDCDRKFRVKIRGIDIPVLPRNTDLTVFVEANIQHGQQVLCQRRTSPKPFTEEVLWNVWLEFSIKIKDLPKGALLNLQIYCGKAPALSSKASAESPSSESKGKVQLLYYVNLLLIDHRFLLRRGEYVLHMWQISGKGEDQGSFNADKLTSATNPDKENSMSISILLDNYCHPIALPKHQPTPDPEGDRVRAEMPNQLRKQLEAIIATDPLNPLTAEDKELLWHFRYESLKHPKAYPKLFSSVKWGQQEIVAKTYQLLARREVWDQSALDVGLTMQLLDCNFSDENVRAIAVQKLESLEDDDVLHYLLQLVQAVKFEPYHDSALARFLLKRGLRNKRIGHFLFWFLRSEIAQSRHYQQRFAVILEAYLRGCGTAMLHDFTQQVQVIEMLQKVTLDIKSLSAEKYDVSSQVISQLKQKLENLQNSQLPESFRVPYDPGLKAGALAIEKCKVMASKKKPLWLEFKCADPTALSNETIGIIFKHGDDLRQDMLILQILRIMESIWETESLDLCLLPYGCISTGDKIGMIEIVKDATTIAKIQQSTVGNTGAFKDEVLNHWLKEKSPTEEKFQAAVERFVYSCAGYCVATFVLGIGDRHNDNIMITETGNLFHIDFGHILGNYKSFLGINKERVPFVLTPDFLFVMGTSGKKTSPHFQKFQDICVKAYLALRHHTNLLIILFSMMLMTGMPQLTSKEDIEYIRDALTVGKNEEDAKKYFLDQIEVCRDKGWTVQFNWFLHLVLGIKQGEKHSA
# [4] = biological target: T1, Phosphatidylinositol 4,5-bisphosphate 3-kinase catalytic subunit delta isoform (Homo sapiens, UniProt O00329); experiment: Inhibition of PI3Kdelta (unknown origin) pre-incubated for 20 mins before phosphatidylinositol 4, 5-bisphosphate substrate addition by kinase-glo plus luminescence assay
# T1 sequence (O00329 whole entry): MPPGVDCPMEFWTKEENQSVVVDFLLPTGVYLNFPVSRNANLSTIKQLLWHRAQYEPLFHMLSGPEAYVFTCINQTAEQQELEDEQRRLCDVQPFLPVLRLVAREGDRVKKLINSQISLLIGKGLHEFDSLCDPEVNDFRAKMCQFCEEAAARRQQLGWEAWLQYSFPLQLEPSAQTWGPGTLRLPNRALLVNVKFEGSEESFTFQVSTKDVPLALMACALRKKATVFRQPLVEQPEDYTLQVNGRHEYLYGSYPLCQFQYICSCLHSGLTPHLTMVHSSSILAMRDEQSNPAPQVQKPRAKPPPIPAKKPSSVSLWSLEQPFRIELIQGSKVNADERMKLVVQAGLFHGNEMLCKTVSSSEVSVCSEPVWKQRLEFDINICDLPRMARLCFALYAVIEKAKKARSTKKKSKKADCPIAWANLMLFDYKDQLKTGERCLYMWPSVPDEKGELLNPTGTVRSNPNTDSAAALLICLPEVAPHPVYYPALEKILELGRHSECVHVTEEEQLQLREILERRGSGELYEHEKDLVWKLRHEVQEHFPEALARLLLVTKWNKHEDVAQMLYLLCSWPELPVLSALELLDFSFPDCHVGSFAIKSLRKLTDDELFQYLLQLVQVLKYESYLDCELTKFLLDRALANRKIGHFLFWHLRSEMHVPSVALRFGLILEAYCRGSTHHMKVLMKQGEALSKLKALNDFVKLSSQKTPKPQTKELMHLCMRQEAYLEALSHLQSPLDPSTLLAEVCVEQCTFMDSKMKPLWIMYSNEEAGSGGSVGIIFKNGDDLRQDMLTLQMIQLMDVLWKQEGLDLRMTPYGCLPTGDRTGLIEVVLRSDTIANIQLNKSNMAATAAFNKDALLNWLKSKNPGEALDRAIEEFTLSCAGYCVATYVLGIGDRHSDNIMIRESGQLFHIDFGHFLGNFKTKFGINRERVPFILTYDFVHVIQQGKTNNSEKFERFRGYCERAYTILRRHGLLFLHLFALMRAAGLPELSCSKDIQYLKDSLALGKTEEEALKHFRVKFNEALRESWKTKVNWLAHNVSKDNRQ
# [5] = biological target: Phosphatidylinositol 4-phosphate 5-kinase type-1 gamma (Homo sapiens, UniProt O60331); experiment: Inhibition of PIP5K1C (unknown origin) using D-myo-phosphatidylinositol 4-phosphate substrate and ATP by ADP-Glo kinase Assay
# [6] = biological target: Phosphatidylinositol 4,5-bisphosphate 3-kinase catalytic subunit alpha isoform (Homo sapiens, UniProt P42336); experiment: Inhibition of PI3Kalpha (unknown origin) pre-incubated for 20 mins before phosphatidylinositol 4, 5-bisphosphate substrate addition by kinase-glo plus luminescence assay
# [7] = biological target: Phosphatidylinositol 4,5-bisphosphate 3-kinase catalytic subunit beta isoform (Homo sapiens, UniProt P42338); experiment: Inhibition of PI3Kbeta (unknown origin) pre-incubated for 20 mins before phosphatidylinositol 4, 5-bisphosphate substrate addition by kinase-glo plus luminescence assay
# Sequence of Phosphatidylinositol 4,5-bisphosphate 3-kinase catalytic subunit beta isoform (P42338 whole entry, canonical isoform): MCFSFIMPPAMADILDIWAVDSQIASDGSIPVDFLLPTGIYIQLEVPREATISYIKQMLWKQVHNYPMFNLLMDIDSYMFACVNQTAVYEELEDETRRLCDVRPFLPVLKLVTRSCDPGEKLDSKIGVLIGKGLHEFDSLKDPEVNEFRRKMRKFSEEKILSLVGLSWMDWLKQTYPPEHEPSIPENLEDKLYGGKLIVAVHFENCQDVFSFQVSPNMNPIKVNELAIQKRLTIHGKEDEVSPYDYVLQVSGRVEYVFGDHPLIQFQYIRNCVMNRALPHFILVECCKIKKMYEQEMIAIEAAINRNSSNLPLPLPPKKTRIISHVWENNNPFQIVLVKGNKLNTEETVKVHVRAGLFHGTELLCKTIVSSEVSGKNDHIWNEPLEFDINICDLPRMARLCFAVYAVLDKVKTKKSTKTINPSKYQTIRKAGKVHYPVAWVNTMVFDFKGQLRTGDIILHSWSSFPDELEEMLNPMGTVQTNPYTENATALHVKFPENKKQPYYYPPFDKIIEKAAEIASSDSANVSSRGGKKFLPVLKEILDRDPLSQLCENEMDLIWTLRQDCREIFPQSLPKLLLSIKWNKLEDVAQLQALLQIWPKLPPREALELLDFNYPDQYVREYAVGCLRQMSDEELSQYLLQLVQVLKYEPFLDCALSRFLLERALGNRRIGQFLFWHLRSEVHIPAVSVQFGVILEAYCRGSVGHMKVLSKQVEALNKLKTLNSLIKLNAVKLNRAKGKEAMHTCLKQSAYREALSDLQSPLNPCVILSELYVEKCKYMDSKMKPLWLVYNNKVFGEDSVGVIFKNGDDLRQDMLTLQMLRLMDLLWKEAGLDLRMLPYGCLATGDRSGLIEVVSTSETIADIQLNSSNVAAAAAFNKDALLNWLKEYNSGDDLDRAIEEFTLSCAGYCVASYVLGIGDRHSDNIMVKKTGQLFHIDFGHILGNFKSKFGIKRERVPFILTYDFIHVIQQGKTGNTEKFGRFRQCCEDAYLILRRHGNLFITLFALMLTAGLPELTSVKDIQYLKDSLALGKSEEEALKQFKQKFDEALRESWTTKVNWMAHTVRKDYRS
Compound,IC50 [1] [µM],IC50 [2] [µM],IC50 [3] [µM],IC50 [4] [µM],IC50 [5] [µM],IC50 [6] [µM],IC50 [7] [µM]
Nc1nc2ccc(-c3ccncc3)cc2s1,2.51,1,,,,,
COCc1ccc(-c2ccc3nc(N)sc3c2)cn1,1,0.316,,6.31,> 100,2.51,15.8
CNCc1ccc(-c2ccc3nc(N)sc3c2)cn1,2.51,3.16,50.1,63.1,> 100,63.1,79.4
Nc1nc2ccc(-c3ccc(CO)nc3)cc2s1,1.58,0.794,,,> 100,3.16,
Cc1ccc(-c2ccc3nc(N)sc3c2)cn1,1.58,0.501,1.26,1.26,> 100,1,2.51
Nc1nc2ccc(-c3ccc(C(F)(F)F)nc3)cc2s1,15.8,1.58,1,1,> 100,2,3.98
CS(=O)(=O)c1ccc(-c2ccc3nc(N)sc3c2)cn1,25.1,7.94,10,12.6,10,158,39.8
CNC(=O)c1ccc(-c2ccc3nc(N)sc3c2)cn1,3.16,2.51,,,31.6,2,
CN(C)C(=O)c1ccc(-c2ccc3nc(N)sc3c2)cn1,1.26,39.8,20,63.1,> 100,39.8,79.4
CC(C)Oc1cncc(-c2ccc3nc(N)sc3c2)c1,1,1,0.251,1.26,31.6,0.501,1.26
Nc1nc2ccc(-c3ccccn3)cc2s1,10,2.51,12.6,79.4,> 100,10,
Nc1nc2ccc(-c3cccnc3)cc2s1,1.58,0.631,,1.26,31.6,2,
Nc1nc2ccc(-c3ncccn3)cc2s1,15.8,6.31,31.6,50.1,31.6,> 100,
Nc1nc2ccc(-c3cnccn3)cc2s1,7.94,6.31,3.98,7.94,> 100,2,6.31
Nc1nc2ccc(-c3ccc(=O)[nH]c3)cc2s1,3.16,3.98,10,31.6,39.8,25.1,50.1
Cn1ccc(-c2ccc3nc(N)sc3c2)n1,2.51,1.26,2.51,12.6,63.1,6.31,15.8
Cn1nccc1-c1ccc2nc(N)sc2c1,12.6,1,2.51,25.1,> 100,12.6,31.6
Cn1cc(-c2ccc3nc(N)sc3c2)cn1,2.51,1.26,2.51,7.94,> 100,7.94,15.8
CCn1cc(-c2ccc3nc(N)sc3c2)cn1,3.16,1.58,3.16,20,> 100,12.6,31.6
CCCn1cc(-c2ccc3nc(N)sc3c2)cn1,1.58,2,1.58,12.6,25.1,12.6,12.6
CC(C)n1cc(-c2ccc3nc(N)sc3c2)cn1,25.1,2.51,3.98,20,63.1,15.8,
Nc1nc2ccc(-c3cnn(C4CC4)c3)cc2s1,7.94,2,1,3.98,> 100,10,10
Nc1nc2ccc(-c3cnn(CC4CC4)c3)cc2s1,0.631,2,1.26,20,,12.6,15.8
COCCOn1ccc(-c2ccc3nc(N)sc3c2)cc1=O,0.631,10,10,> 200,> 100,25.1,> 200
Nc1nc2ccc(-c3ccccc3)cc2s1,2.51,0.501,,,> 100,12.6,

# Results, then the molecule that gave them:
IC50 [1] [µM],IC50 [2] [µM],IC50 [3] [µM],IC50 [4] [µM],IC50 [5] [µM],IC50 [6] [µM],IC50 [7] [µM],Compound
0.631,1,0.398,0.794,25.1,,,COc1ccc(-c2ccc3nc(N)sc3c2)cn1
0.0794,1.26,12.6,12.6,> 100,5.01,31.6,CC(C)Oc1ccc(-c2ccc3nc(N)sc3c2)cn1
0.631,1,3.98,6.31,31.6,2,12.6,CCNc1ccc(-c2ccc3nc(N)sc3c2)cn1
0.631,1.58,3.98,12.6,> 100,6.31,39.8,CCN(C)c1ccc(-c2ccc3nc(N)sc3c2)cn1
0.316,0.501,1.26,2,> 100,1.26,6.31,Nc1nc2ccc(-c3ccc(OCCO)nc3)cc2s1
0.316,1,3.16,6.31,> 100,2.51,7.94,COCCOc1ccc(-c2ccc3nc(N)sc3c2)cn1
0.398,3.98,0.126,0.316,> 100,0.251,0.251,CS(=O)(=O)c1cncc(-c2ccc3nc(N)sc3c2)c1
0.316,0.631,1.26,10,15.8,3.98,6.31,Nc1nc2ccc(-c3cc[nH]c(=O)c3)cc2s1
0.158,0.794,2,20,> 100,7.94,25.1,Nc1nc2ccc(-c3cnn(Cc4ccccc4)c3)cc2s1
0.501,0.316,,5.01,> 100,2.51,63.1,Cn1ccc(-c2ccc3nc(N)sc3c2)cc1=O
0.316,0.316,3.16,10,> 100,6.31,50.1,CCn1ccc(-c2ccc3nc(N)sc3c2)cc1=O
